Reference: patent US11331294B2, “Benzoquinone derivative E3330 in combination with chemotherapeutic agents for the treatment of bladder cancer” (Indiana University Research and Technology Corporation, priority 2007, dated 2022)
Each block holds one compound with its values, some of them ahead of it.

Assays:
T24 cells = test: Methylene blue cell growth assay T24; assay type: cell-based; details: Homo sapiens, T-24, read-out: cell growth-inhibitory IC50
Experimental: (§1) FIGS. 31A & 31B. Treatment with APE1/Ref-1 inhibitors potently blocks bladder cancer cell proliferation and activated Caspase 3/7. […] The IC50 values for FIG. 31A were determined using the methylene blue assay, n=4. […] T24 and UC3 cells were treated with APX2009 and APX2014 at the IC50 and IC90 and monitored over time for activation of capsase 3/7 by an increase in red fluorescence. Time course graphs are shown in FIG. 31B and representative images at 48 hr are shown in FIG. 32A (described more fully below), n=3-4.
(§2) FIGS. 36A-36H. […] In cytokine-induced T24 and UC3 cells NFκB-driven luciferase (FIG. 36A), STAT3-driven luciferase (FIG. 36B), and AP-1-driven luciferase (FIG. 36C) were quantified and normalized via Renilla following treatment with the corresponding cell growth-inhibitory IC50 concentrations. T24 cells were treated with APX2009 (8.5 μM) and APX2014 (6.5 μM), and UC3 cells were treated with APX2009 (6.1 μM) and APX2014 (4.6 μM) for 24 h. (*-p<0.05 APX treated vs vehicle, n=4). […] In the panels of FIGS. 36F & 36G, co-expression of survivin and APE1/Ref-1 was analyzed in superficial (FIG. 36F) and invasive human bladder tumors (FIG. 36G) in patients, and found nearly universal overlap of positivity in both in human samples. This was also true in cisplatin-refractory patients from the tissue microarray specimens (FIG. 36H). […]

UC3 cells = test: Methylene blue cell growth assay UC3; assay type: cell-based; details: Homo sapiens, read-out: cell growth-inhibitory IC50
Experimental: as §1, §2

[1] = test system: SW780, T24, UC3 cell lines; test: Methylene blue cell growth assay, bladder cancer cell panel; assay type: cell-based, human
Experimental: as §1
Bladder cancer cell proliferation was inhibited and apoptosis was induced by potent, selective redox inhibitors of APE1/Ref-1.

bladder cancer cells = test: BrdU incorporation assay in cultured cells; assay type: cell-based; details: IC50 concentration, 24 hours; control 11.2%±0.84
Experimental: To determine the proliferation rate of cells in response to APE1/Ref-1 redox inhibitors, cells were grown in the culture conditions described above and treated with inhibitors as described above, in chamber slides. After 24 hours in culture with inhibitors or vehicle, all cells were treated with 3.1 μg/ml BrdU (in sterile PBS; 0.1%) for one hour. Cells were fixed and permeablized with 4% paraformaldehyde and stained for BrdU incorporation with the antibody and methodology described in the Roche BrdU labeling Kit, (Risch-Rotkreuz, Switzerland), using secondary antibodies. Positive cells were captured on a Leica 6000 fluorescent microscope and were quantified relative to Hoechst positive nuclei (total live cells).
To further characterize this effect, it was analyzed whether this reduced cell number was due to decreases in proliferation, increases in apoptosis, or both.

UC3 and T24 cells = test: Incucyte caspase-3/7 apoptosis assay; assay type: cell-based, human; details: red fluorescence over time
Experimental: UC3 and T24 cells were plated in 96-well plates at 3,500 cell/well and allowed to attach overnight. Increasing amounts of APX2009 or APX2014 were added to each well along with 1 μM of the caspase reagent (Caspase-3/7 Red, Essen Bioscience) and then the cells were allowed to recover for 2 hours prior to beginning imaging with the Incucyte system (Essen Bioscience). Each well was imaged for phase contrast as well as red fluorescence every 2 hours for 96 hours. The Incucyte software generated movies of the cells following treatment as well as real-time imaging data with red fluorescence normalized to the percent confluency of the well.
To assay for caspase-3/7 mediated apoptosis, the increase in red fluorescence was analyzed over time following the addition of APX2009 and APX2014.

[2] = test system: RP-B-01, RP-B-02 and T24 cell lines; test: Alamar blue combination study with cisplatin; assay type: cell-based, human; details: combined with increasing concentrations of cisplatin, 72 h
Experimental: FIGS. 30A-30C. […] RP-B-01, RP-B-02, and T24 cell lines were treated with increasing concentrations of cisplatin in combination with a single dose of either APX2009 or APX2014 as indicated (n=3±SE). Cell proliferation was normalized to Saline control and expressed as Fold Change. Combination index (CI) values calculated with Compusyn for combination of APX inhibitors and cisplatin. CI values indicated mainly additivity (0.95-1.2) to synergy (0.8-0.94).
Bladder cancer cell lines (BLCAb001 (RP-B-01) and BLCAb002 (RP-B-02) maintained in RPMI growth medium with 10% FBS were plated at 4,000 cells/well in poly-D-lysine treated 96-well clear bottom black plates and grown overnight in 5% CO2 at 37° C. Cells in monolayer were then treated with increasing concentrations of redox-specific inhibitor APX3330, APX2014 or APX2009 and serially diluted 1:2 in a 5-point dose scheme. For combination studies, cells were treated with both cisplatin and APX compounds to determine efficacy. After 72 hours, fresh RPMI medium with 5% FBS was exchanged, and a fluorescent metabolic indicator, Alamar Blue was added to each well at 10% final concentration. After a 4 hour incubation, plates were read on a Synergy H4 (Bio-Tek) plate reader. […]
APE1/Ref-1 inhibition enhances cisplatin's therapeutic effect. […] Cell proliferation was assessed using Alamar blue 72 h after drug treatment.

RP-B-01 spheroids = test: 3D spheroid growth assay RP-B-01; assay type: cell-based, human; details: p<0.01
From the text: (§3) RP-B-01 and RP-B-02 cells were resuspended in normal growth media containing 3% Reduced Growth Factor Matrigel (BD Biosciences) at a cell density of 1,500 and 3,000 cells/well, respectively and plated in ultra-low adherence 96-well plates (Corning).
(§4) Spheroids were allowed to form and then treated on days 4, 8, and 12 following plating with media containing 5% serum, 3% Reduced Growth Factor Matrigel, and APE1/Ref-1 inhibitors. Vehicle control, DMSO, was less than 0.01% of the volume, and was equivalent in each well. On Day 15, Alamar blue reagent (LifeTechnologies) was added to each well (10 μL/well) and incubated for 24 hours.
(§5) In order to mimic tumor growth more accurately in a relevant microenvironment and in a more robust model for predicting response to treatment, a three-dimensional (3D) culture model of patient-derived RP-B-01 and RP-B-02 bladder cancer cells was used. Both RP-B-01 and RP-B-02 cell lines are transitional cell carcinoma staged as T4bN1Mx and T2bN0Mx Grade III tumors, respectively.

RP-B-02 spheroids = test: 3D spheroid growth assay RP-B-02; assay type: cell-based, human; details: p<0.05
From the text: as §3, §4, §5

NFκB = test: NFκB-driven luciferase reporter; assay type: cell-based, human; details: T24 and UC3 cells, IC50 concentration, 24 h
Experimental: (§6) FIGS. 36A-36H. […] In cytokine-induced T24 and UC3 cells NFκB-driven luciferase (FIG. 36A), STAT3-driven luciferase (FIG. 36B), and AP-1-driven luciferase (FIG. 36C) were quantified and normalized via Renilla following treatment with the corresponding cell growth-inhibitory IC50 concentrations. T24 cells were treated with APX2009 (8.5 μM) and APX2014 (6.5 μM), and UC3 cells were treated with APX2009 (6.1 μM) and APX2014 (4.6 μM) for 24 h. (*-p<0.05 APX treated vs vehicle, n=4). […] In the panels of FIGS. 36F & 36G, co-expression of survivin and APE1/Ref-1 was analyzed in superficial (FIG. 36F) and invasive human bladder tumors (FIG. 36G) in patients, and found nearly universal overlap of positivity in both in human samples. This was also true in cisplatin-refractory patients from the tissue microarray specimens (FIG. 36H).
(§7) The transcriptional activity of NFκB, STAT3, and AP-1 is under redox control by APE1/Ref-1. Therefore, NFκB, STAT3, or AP-1 transcriptional activity was quantified following treatment with APE1/Ref-1 redox inhibitors (FIGS. 36A-36C).

STAT3 = test: STAT3-driven luciferase reporter; assay type: cell-based, human; details: T24 and UC3 cells induced with IL-6, IC50 concentration, 24 h
Experimental: as §6, §7

survivin and Cyclin D1 = test: Western blot of survival and proliferation proteins in cells; assay type: cell-based, human; details: immunoblot
Experimental: as §6
Whole cell extracts were prepared using RIPA (radioimmunoprecipitation) buffer containing protein inhibitors (1:100 PMSF, 1:100 orthovanadate and 1:100 protease inhibitor). Total protein concentration was determined via Lowry or BCA assay. 10-50 μg/well of each lysate was separated by SDS-PAGE using a 12% SDS-polyacrylamide gel. Blots were blocked with 5% nonfat dry milk in 1×TBS for 1 h and incubated overnight with primary antibodies to either APE1/Ref-1 (1:1000 dilution, Novus, NB-100-116), survivin (1:1000, Cell Signaling), Cyclin D1 (1:500, Abcam), PARP-1 (1:1000, Cell Signaling) or GAPDH (1:5000, Cell Signaling). After blots were washed three-six times with TBS-Tween, blots were incubated with HRP-conjugated secondary mouse antibodies (1:5000, Pierce). After washing three-six times with TBS-Tween, blots were visualized by enhanced chemiluminescence (West Pico/West Femto, Pierce).
For further confirmation of a decrease in NFκB and STAT3 transcriptional activity, levels of survivin and Cyclin D1 were examined Both survivin and Cyclin D1 are known to be downstream targets of NFκB and STAT3. […] However, unlike APE1/Ref-1, survivin expression was primarily nuclear in both urothelial confined and invasive lesions.

RP-B-01 cells = test: Alamar blue monolayer assay RP-B-01; assay type: cell-based, human
Experimental: (§8) Bladder cancer cell lines (BLCAb001 (RP-B-01) and BLCAb002 (RP-B-02) maintained in RPMI growth medium with 10% FBS were plated at 4,000 cells/well in poly-D-lysine treated 96-well clear bottom black plates and grown overnight in 5% CO2 at 37° C. Cells in monolayer were then treated with increasing concentrations of redox-specific inhibitor APX3330, APX2014 or APX2009 and serially diluted 1:2 in a 5-point dose scheme. For combination studies, cells were treated with both cisplatin and APX compounds to determine efficacy. After 72 hours, fresh RPMI medium with 5% FBS was exchanged, and a fluorescent metabolic indicator, Alamar Blue was added to each well at 10% final concentration. After a 4 hour incubation, plates were read on a Synergy H4 (Bio-Tek) plate reader. For each drug dose, background was subtracted and then further normalized to media alone.
(§9) APE1/Ref-1 inhibition enhances cisplatin's therapeutic effect. Cisplatin is the standard of care for bladder cancer, but many patients' tumors are refractory to this therapy. […] To determine this, PDX lines, RP-B-01 and RP-B-02, as well as established cell line, T24, were treated with increasing concentrations of cisplatin in combination with APX compounds (FIGS. 30A-30C). Cell proliferation was assessed using Alamar blue 72 h after drug treatment.

RP-B-02 cells = test: Alamar blue monolayer assay RP-B-02; assay type: cell-based, human; details: 72 h
Experimental: as §8, §9

endothelial cells = test: In vitro tube formation assay; assay type: cell-based; details: dose dependent
From the text: In vitro tube formation assay.

[3] = test system: subretinal neovascularization (SNV) in vldlr-/- retina; test: SNV in vldlr-/- knockout mice assay; assay type: in vivo; details: antibody injection
Experimental: SNV in vldlr−/− knockout mice assay. […] Experiments were carried out in very-low-density lipoprotein receptor (vldr) knockout mice to determine the effect of APX3330 on inhibition of SNV development in the vldlr−/− mutant. Each animal received a single intravitreal injection of 1 μl volume of BSS as a vehicle control and the fellow eye received 1 μl of […] APX3330. The final concentration of APX3330 was equivalent to approximately 20 μM in the retina. Quantitative measurement of SNV was carried out one week after the treatment in the whole mount retina after lectin-FITC staining. […] The apparent increase of SNV after antibody injection could be due to foreign protein triggered immune response which has been reported before (Tator et al., 2008). APX3330 reduced the number of SNV at a statistically significant level (p<0.01 in paired t-test). […] The Ape1/Ref-1 inhibitor offers a new approach to control angiogenesis for advanced macular degeneration (AMD) treatment.

- IC50 (T24 cells): 6.5 µM
- fold lower IC50 than APX3330 [1]: 11 fold
Compound: CCC/C(=C\C1=C(OC)C(=O)c2ccccc2C1=O)C(=O)NOC [APX2014]
- IC50 (UC3 cells): 4.6 µM
- BrdU-positive cells (bladder cancer cells): 7.2%±0.49
- caspase-3/7 activation (UC3 and T24 cells): dose-dependent increase in caspase activation
- cellular proliferation when combined with cisplatin [2]: further reduction in cellular proliferation
- relative sensitivity of RP-B-01 cells in 3D culture (RP-B-01 spheroids): significantly more sensitive to APX2014 than APX2009
- potency in RP-B-02 cells in 3D culture relative to APX3330 (RP-B-02 spheroids): more potent in the RP-B-02 cells than parent compound APX3330
- NFκB transcriptional activity (NFκB): reduced the transcriptional activity of NFκB and STAT3
- STAT3 transcriptional activity (STAT3): reduced the transcriptional activity of NFκB and STAT3
- expression of c-Myc, Bcl-2, Bcl-XL (survivin and Cyclin D1): No change in expression
- expression of survivin and Cyclin D1 (survivin and Cyclin D1): significantly down-regulated

Compound: N.N.[Cl][Pt][Cl] [cisplatin]
- resistance of RP-B-01 relative to RP-B-02 cells (RP-B-01 cells): at least 3 fold
- IC50 (RP-B-01 cells; RP-B-01 cells, 72 h): 1.44 µM
- IC50 (RP-B-02 cells): 0.5 µM

Compound: AVASTIN®: VEGF antibody [reference compound]
- formation of blood-vessel-like tubules (endothelial cells): prevented formation of blood-vessel-like tubules
- inhibition to the number of SNV [3]: neither AVASTIN® (VEGF antibody) nor bFGF antibody treatment showed any sign of inhibition
